Assay results reported in PubChem BioAssay AID248 (DTP/NCI, 2004).
Values joined by “and” are separate entries in the source; they are usually repeats but may differ in a detail not shown here. Identical values can stand only once. Toxic doses and inconclusive results are not listed.

Test system: L1210 leukemia ip in BDF1 mice, survival T/C
Assay: NCI In Vivo Anticancer Drug Screen. Data for tumor model L1210 Leukemia (intraperitoneal) in B6D2F1 (BDF1) mice
Details: endpoint: mean survival time, higher = longer survival
Outline: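 In this screen, tumor-bearing mice given compound are compared to those given vehicle, and their survival values are reported as a treated-to-control quotient.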

[1] = dose: 50.0 mg/kg/injection, schedule: Q01DX009 (ip), vehicle: saline with Tween-80
[2] = dose: 100.0 mg/kg/injection, schedule: Q01DX009 (ip), vehicle: saline with Tween-80
[3] = dose: 200.0 mg/kg/injection, schedule: Q01DX009 (ip), vehicle: saline with Tween-80
[4] = dose: 100.0 mg/kg/injection, schedule: Q04DX002 (ip), vehicle: Klucel (hydroxypropylcellulose) (HPC)
[5] = dose: 200.0 mg/kg/injection, schedule: Q04DX002 (ip), vehicle: Klucel (hydroxypropylcellulose) (HPC)
[6] = dose: 400.0 mg/kg/injection, schedule: Q04DX002 (ip), vehicle: Klucel (hydroxypropylcellulose) (HPC)
[7] = dose: 100.0 mg/kg/injection, schedule: Q04DX003 (ip), vehicle: saline with Tween-80
[8] = dose: 200.0 mg/kg/injection, schedule: Q04DX003 (ip), vehicle: saline with Tween-80
[9] = dose: 400.0 mg/kg/injection, schedule: Q01DX009 (ip), vehicle: saline with Tween-80
[10] = dose: 400.0 mg/kg/injection, schedule: Q04DX003 (ip), vehicle: saline with Tween-80
[11] = dose: 100.0 mg/kg/injection, schedule: Q04DX003 (ip), vehicle: saline
[12] = dose: 200.0 mg/kg/injection, schedule: Q04DX003 (ip), vehicle: saline
[13] = dose: 400.0 mg/kg/injection, schedule: Q04DX003 (ip), vehicle: saline
[14] = dose: 100.0 mg/kg/injection, schedule: Q04DX002 (ip), vehicle: saline with Tween-80
[15] = dose: 200.0 mg/kg/injection, schedule: Q04DX002 (ip), vehicle: saline with Tween-80
[16] = dose: 400.0 mg/kg/injection, schedule: Q04DX002 (ip), vehicle: saline with Tween-80
[17] = dose: 100.0 mg/kg/injection, schedule: Q01DX001 (ip), vehicle: saline
[18] = dose: 400.0 mg/kg/injection, schedule: Q01DX001 (ip), vehicle: saline
[19] = dose: 200.0 mg/kg/injection, schedule: Q01DX001 (ip), vehicle: saline

Oc1ccccc1C=Nc1ccc(Cl)c(Cl)c1
T/C (dose: 100.0 mg/kg/injection, schedule: Q01DX009 (ip), vehicle: Klucel (hydroxypropylcellulose) (HPC)): 93 % of control | T/C (dose: 200.0 mg/kg/injection, schedule: Q01DX009 (ip), vehicle: Klucel (hydroxypropylcellulose) (HPC)): 93 % of control | T/C (dose: 400.0 mg/kg/injection, schedule: Q01DX009 (ip), vehicle: Klucel (hydroxypropylcellulose) (HPC)): 96 % of control

CSc1nc(Cl)nc(C(Cl)Cl)c1Cl
T/C (dose: 12.5 mg/kg/injection, schedule: Q01DX009 (ip), vehicle: other): 93 % of control | T/C (dose: 25.0 mg/kg/injection, schedule: Q01DX009 (ip), vehicle: other): 107 % of control | T/C (dose: 50.0 mg/kg/injection, schedule: Q01DX009 (ip), vehicle: other): 89 % of control and 90 % of control

ClCCN(CCCl)c1ccc(-n2cnc3c(Cl)ncnc32)cc1
T/C (dose: 32.0 mg/kg/injection, schedule: Q01DX015 (ip), vehicle: carboxymethylcellulose (CMC)): 96 % of control | T/C (dose: 64.0 mg/kg/injection, schedule: Q01DX015 (ip), vehicle: carboxymethylcellulose (CMC)): 96 % of control | T/C (dose: 128.0 mg/kg/injection, schedule: Q01DX015 (ip), vehicle: carboxymethylcellulose (CMC)): 97 % of control | T/C (dose: 256.0 mg/kg/injection, schedule: Q01DX015 (ip), vehicle: carboxymethylcellulose (CMC)): 105 % of control

COc1cc(C=O)ccc1OC(=O)Nc1ccc(Cl)cc1C(F)(F)F
T/C [1]: 89 % of control | T/C [2]: 100 % of control | T/C [3]: 96 % of control

Clc1nc2ccccc2s1
T/C (dose: 100.0 mg/kg/injection, schedule: Q01DX009 (ip), vehicle: alcohol): 88 % of control | T/C (dose: 200.0 mg/kg/injection, schedule: Q01DX009 (ip), vehicle: alcohol): 89 % of control

COc1ccc(OC)c(NCCN2C(=O)c3ccccc3C2=O)c1
T/C [4]: 95 % of control | T/C [5]: 100 % of control | T/C [6]: 100 % of control

CCCCOC(=O)C=O
T/C [1]: 106 % of control | T/C [2]: 97 % of control

O=S(=O)(OCCNc1ccccc1)c1ccccc1
T/C (dose: 75.0 mg/kg/injection, schedule: Q01DX001 (ip), vehicle: saline): 101 % of control | T/C (dose: 150.0 mg/kg/injection, schedule: Q01DX001 (ip), vehicle: saline): 98 % of control | T/C (dose: 300.0 mg/kg/injection, schedule: Q01DX001 (ip), vehicle: saline): 98 % of control

O=P(Oc1ccc(S(=O)(=O)c2ccccc2)cc1)(Oc1ccc(S(=O)(=O)c2ccccc2)cc1)Oc1ccc(S(=O)(=O)c2ccccc2)cc1
T/C [2]: 90 % of control | T/C [7]: 90 % of control | T/C [3]: 93 % of control | T/C [8]: 91 % of control | T/C [9]: 91 % of control | T/C [10]: 95 % of control

COc1ccccc1C(=O)N/N=C/c1cccc([N+](=O)[O-])c1
T/C [4]: 96 % of control | T/C [5]: 89 % of control | T/C [6]: 89 % of control

CC1=NN(c2ccc(S(=O)(=O)O)cc2)C(=O)/C1=C\c1c(C)[nH]n(-c2ccc(S(=O)(=O)O)cc2)c1=O
T/C (dose: 100.0 mg/kg/injection, schedule: Q01DX009 (ip), vehicle: saline): 97 % of control | T/C [11]: 91 % of control | T/C (dose: 200.0 mg/kg/injection, schedule: Q01DX009 (ip), vehicle: saline): 106 % of control | T/C [12]: 95 % of control | T/C (dose: 400.0 mg/kg/injection, schedule: Q01DX009 (ip), vehicle: saline): 92 % of control | T/C [13]: 91 % of control

CCN(CC)C(C)(C)COC(=O)c1ccc([N+](=O)[O-])cc1
T/C (dose: 222.0 mg/kg/injection, schedule: Q01DX Z (ip), vehicle: methylcellulose (MC)): 121 % of control | T/C (dose: 333.0 mg/kg/injection, schedule: Q01DX Z (ip), vehicle: methylcellulose (MC)): 101 % of control | T/C (dose: 500.0 mg/kg/injection, schedule: Q01DX Z (ip), vehicle: methylcellulose (MC)): 96 % of control

NC(=O)c1nc2n(c1N)CCC2
T/C [2]: 108 % of control | T/C [7]: 97 % of control | T/C [3]: 110 % of control | T/C [8]: 100 % of control | T/C [9]: 105 % of control | T/C [10]: 94 % of control

CC(=O)NC(=O)CC(O)(c1ccccc1)c1ccccc1
T/C [2]: 96 % of control | T/C [3]: 91 % of control | T/C [9]: 92 % of control

COC(=O)C(O)C(O)C(O)C(O)C(=O)OC (stereo not given)
T/C (dose: 50.0 mg/kg/injection, schedule: Q04DX002 (ip), vehicle: saline with Tween-80): 101 % of control | T/C [14]: 96 % of control | T/C [15]: 90 % of control | T/C [16]: 93 % of control

COc1ccc(/C=C2\CS(=O)(=O)C/C(=C\c3ccc(OC)cc3)C2=O)cc1
T/C [17]: 94 % of control | T/C [18]: 95 % of control

COC1C(O)C(C)OC(OC2CCC3(C)C(CCC4C3C(O)CC3(C)C(C5=CC(=O)OC5)CCC43O)C2)C1O (stereo not given)
T/C (dose: 5.0 mg/kg/injection, schedule: Q01DX001 (ip), vehicle: saline): 103 % of control | T/C (dose: 10.0 mg/kg/injection, schedule: Q01DX001 (ip), vehicle: saline): 103 % of control | T/C (dose: 20.0 mg/kg/injection, schedule: Q01DX001 (ip), vehicle: saline): 101 % of control

CC1NC(c2ccccc2)N(C(Cc2ccccc2)C(=O)O)C1=O (stereo not given)
T/C (dose: 50.0 mg/kg/injection, schedule: Q01DX001 (ip), vehicle: saline): 94 % of control | T/C [17]: 89 % of control | T/C [19]: 99 % of control

Oc1cc(N2CC2)c(O)cc1N1CC1
T/C (dose: 0.3 mg/kg/injection, schedule: Q01DX009 (ip), vehicle: saline): 154 % of control | T/C (dose: 0.5 mg/kg/injection, schedule: Q01DX009 (ip), vehicle: saline): 118 % of control

CC(=O)/C=C/c1ccco1
T/C (dose: 12.5 mg/kg/injection, schedule: Q01DX009 (ip), vehicle: DMSO): 101 % of control | T/C (dose: 25.0 mg/kg/injection, schedule: Q01DX009 (ip), vehicle: DMSO): 97 % of control | T/C (dose: 25.0 mg/kg/injection, schedule: Q04DX003 (ip), vehicle: DMSO): 96 % of control | T/C (dose: 50.0 mg/kg/injection, schedule: Q01DX009 (ip), vehicle: DMSO): 92 % of control | T/C (dose: 50.0 mg/kg/injection, schedule: Q04DX003 (ip), vehicle: DMSO): 108 % of control | T/C (dose: 100.0 mg/kg/injection, schedule: Q04DX003 (ip), vehicle: DMSO): 98 % of control

Cc1cc(C)c(N2C(=O)CC(Sc3ccccc3N)C2=O)c(C)c1 (stereo not given)
T/C [7]: 105 % of control | T/C [8]: 109 % of control | T/C [10]: 98 % of control

COc1cc(C=O)cc(O)c1O
T/C (dose: 62.5 mg/kg/injection, schedule: Q01DX Z (ip), vehicle: saline): 96 % of control | T/C (dose: 500.0 mg/kg/injection, schedule: Q01DX Z (ip), vehicle: saline): 124 % of control

CC(=O)C1(O)CCC2C3CC(C)C4=CC(=O)C=CC4(C)C3C(O)CC21C (stereo not given)
T/C (dose: 12.5 mg/kg/injection, schedule: Q04DX002 (ip), vehicle: Klucel (hydroxypropylcellulose) (HPC)): 97 % of control | T/C (dose: 25.0 mg/kg/injection, schedule: Q04DX002 (ip), vehicle: Klucel (hydroxypropylcellulose) (HPC)): 97 % of control | T/C (dose: 50.0 mg/kg/injection, schedule: Q04DX002 (ip), vehicle: Klucel (hydroxypropylcellulose) (HPC)): 90 % of control

COc1cc(C=C2c3ccccc3-c3ccccc32)ccc1O
T/C [17]: 91 % of control | T/C [11]: 99 % of control | T/C [19]: 91 % of control | T/C [12]: 91 % of control | T/C [18]: 91 % of control | T/C [13]: 91 % of control

CCCCN(CCCC)S(=O)(=O)CC
T/C [14]: 100 % of control | T/C [15]: 98 % of control | T/C [16]: 95 % of control

O=C(O)c1ccc([N+](=O)[O-])cc1-n1cccc1
T/C (dose: 100.0 mg/kg/injection, schedule: Q04DX003 (ip), vehicle: Klucel (hydroxypropylcellulose) (HPC)): 95 % of control | T/C (dose: 200.0 mg/kg/injection, schedule: Q04DX003 (ip), vehicle: Klucel (hydroxypropylcellulose) (HPC)): 98 % of control | T/C (dose: 400.0 mg/kg/injection, schedule: Q04DX003 (ip), vehicle: Klucel (hydroxypropylcellulose) (HPC)): 88 % of control
